Data on 19 compounds can be found in paper PMC8711653, “The Nature of Diamino Linker and Halogen Bonding Define Selectivity of Pyrrolopyrimidine-Based LIMK1 Inhibitors” (Frontiers in Chemistry, 2021).

Like-named read-outs stand apart in the source and are kept apart here.

Series [1] has as its target T1, LIMK1 (Homo sapiens, UniProt P53667).
T1 construct: purchased Promega
As to the kind of experiment: LIMK1 ADP-Glo kinase assay (Promega). The series is classed as biochemical. Particulars: 0.1 μM compound. Here is the method: ADP-Glo kinase assay was performed in 96-well plate format using the Promega kinase assay system. LIMK1 (0.1 μg) and compounds (0.1–100 μM) were dissolved in kinase reaction buffer and incubated for 30 min at rt. The reaction was then initiated by the addition of ATP (10 μM, 5 μl) and incubation for 30 min at 30°C. The reaction was then quenched with addition of 25 μl of ADP-Glo reagent. Kinase detection reagent (50 μl) was added and incubated for 30 min prior to luminescence reading on the BMG Labtech PHERAstar FS plate reader. Kinase assay is performed as duplicate.
A general note: ADP-Glo turns the ADP formed in a reaction into a luminescent signal.

Series [2] deals with T1, LIMK1. Kind of series: 33P-ATP radiotracer assay, LIMK1 (Reaction Biology Corporation). The series is classed as biochemical. Particulars: for IC50: 33P transfer from ATP to cofilin, 10 μM 33P-ATP, 1 μM cofilin, triplicate. On the procedure: (§1) To measure the selectivity against LIMK isoforms, the radiotracer assay measuring the transfer of ^33P from ATP to the substrate was used since there was no ADP-Glo™ kinase assay system available for LIMK2 (Table 2).
(§2) The radiotracer assay of LIMK1 and LIMK2 was performed by Reaction Biology Corporation. Compounds were tested in 10-dose IC50 mode with fivefold series dilution starting at 10 μM. Reactions were carried out at 10 μM ^33P-ATP, 1 μM cofilin substrate, and 50 nM LIMK1 (final concentration). Kinase activity is determined by the transfer or radioactive ^33P from ATP to cofilin substrate. Radiotracer assay is performed as triplicate.

For the next series, the system named is C6 cells. Kind of series: Scratch (wound closure) assay, cell migration velocity. Type of series: cell-based. Conditions: live imaging 24 h, compared to untreated cell. Here is the method:
Cofilin, the substrate for LIMK1, regulates the actin skeleton and thus regulates cell migration ([Bravo-Cordero et al., 2013]). To understand the inhibitory effect of compounds 1 and 22–26 in vitro, scratch assays were performed. The artificial wound was created by “scratching” in the middle of the well with confluent C6 cells in culture. Live imaging was captured for 24 h to measure the distance of cell migration (Figure 3; Supplementary video).
The velocity of cell migration is measured using the C6 cell line in the 24-well plate. Cells were seeded at 100,000 cells/well. After 24 h, cells were washed with warm PBS and treated with the inhibitors. Directly following the treatment, cells were moved into a preheated stage-top incubator maintained at 37°C/5% CO2, using the ZEISS Axio Observer live cell microscope, fitted with an Axiocam 702 mono camera. Cells were imaged once every 10 min using a ×10 objective with phase contrast for a 24-h period. Cell migration was analysed using Fiji ImageJ (NIH) and Chemotaxis Migration Tool (ibidi).

The target in series [3] is T2, LIMK2 (Homo sapiens, UniProt P53671).
T2 construct: purchased Reaction Biology Corporation
As to the kind of experiment: 33P-ATP radiotracer assay, LIMK2 (Reaction Biology Corporation). Type of series: biochemical. Here is the method: as §1, §2

Series [4] has as its target T1, LIMK1. Particulars: Figure 1A, known inhibitors, ref Harrison et al., 2009, Boland et al., 2015, Yin et al., Yi et al., 2017; cited from earlier work.
The target in series [5] is T2, LIMK2. Conditions: Figure 1A, known inhibitors, ref Harrison et al., 2009, Boland et al., 2015, Yin et al., Yi et al., 2017; cited from earlier work.
Setting [6] is: Promega ADP-Glo kinase assay, Table 1, read-out: % LIMK1 inhibition at 0.1 μM.
The mark [7] stands for this setting: 33P transfer from ATP to cofilin, 10 μM 33P-ATP, 1 μM cofilin, triplicate.
Setting [8] is: Promega ADP-Glo kinase assay, Table 1, read-out: % LIMK1 inhibition at 0.1 μM (dash = no inhibition).
[9] abbreviates: ADP-Glo assay, read-out: LIMK1 inhibitory activity at 0.1 μM.
Setting [10] is: Promega ADP-Glo kinase assay, Table 2, read-out: % LIMK1 inhibition at 0.1 μM.
Where [11] appears, read: 33P radiotracer assay, top concentration 10 μM.

T2 sequence (P53671 whole entry): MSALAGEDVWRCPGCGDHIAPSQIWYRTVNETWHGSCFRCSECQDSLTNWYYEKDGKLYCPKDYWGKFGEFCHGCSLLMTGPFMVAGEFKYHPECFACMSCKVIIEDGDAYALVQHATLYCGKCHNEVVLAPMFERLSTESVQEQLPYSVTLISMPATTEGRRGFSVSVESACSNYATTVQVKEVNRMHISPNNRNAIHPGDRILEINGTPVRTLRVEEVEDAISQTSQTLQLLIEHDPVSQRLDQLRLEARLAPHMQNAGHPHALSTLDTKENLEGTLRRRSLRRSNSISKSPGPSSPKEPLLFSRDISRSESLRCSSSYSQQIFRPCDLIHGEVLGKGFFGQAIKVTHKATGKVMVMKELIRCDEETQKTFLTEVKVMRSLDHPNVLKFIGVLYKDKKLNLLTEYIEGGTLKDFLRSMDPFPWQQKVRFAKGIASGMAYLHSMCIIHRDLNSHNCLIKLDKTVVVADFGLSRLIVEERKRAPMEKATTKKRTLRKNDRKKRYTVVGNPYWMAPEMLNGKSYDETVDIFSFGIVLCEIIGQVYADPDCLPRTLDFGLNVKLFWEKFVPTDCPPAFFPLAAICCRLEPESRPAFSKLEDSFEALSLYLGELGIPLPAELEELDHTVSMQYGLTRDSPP
T1 sequence (P53667 whole entry): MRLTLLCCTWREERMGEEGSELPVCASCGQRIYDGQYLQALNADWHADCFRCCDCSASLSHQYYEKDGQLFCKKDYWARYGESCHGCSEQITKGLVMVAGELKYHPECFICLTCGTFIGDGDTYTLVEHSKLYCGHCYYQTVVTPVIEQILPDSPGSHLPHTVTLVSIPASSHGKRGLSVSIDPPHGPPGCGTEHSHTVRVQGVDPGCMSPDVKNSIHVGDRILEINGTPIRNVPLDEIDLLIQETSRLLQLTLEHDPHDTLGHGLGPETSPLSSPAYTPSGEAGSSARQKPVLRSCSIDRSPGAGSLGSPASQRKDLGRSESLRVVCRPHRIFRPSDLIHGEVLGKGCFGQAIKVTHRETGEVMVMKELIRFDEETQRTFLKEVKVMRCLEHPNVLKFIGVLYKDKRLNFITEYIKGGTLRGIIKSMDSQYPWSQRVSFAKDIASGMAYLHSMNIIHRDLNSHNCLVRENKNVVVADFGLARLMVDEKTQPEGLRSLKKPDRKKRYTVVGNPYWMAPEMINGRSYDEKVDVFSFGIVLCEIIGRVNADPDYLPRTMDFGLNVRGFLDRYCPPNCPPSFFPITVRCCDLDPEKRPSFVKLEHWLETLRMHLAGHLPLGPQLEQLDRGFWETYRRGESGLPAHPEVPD

For `Cc1c[nH]c2ncnc(N3CCN(/C(=N/C#N)Nc4cccc(Br)c4)[C@@H](C)C3)c12` [Compound 1, reference compound], on LIMK1 [1] (setting [6]), the inhibition at 0.1 µM is 94.3 ± 0.2%. Also, the half-maximal inhibitory concentration (IC50) (as a rule, the concentration needed to halve the response being measured) against LIMK1 [2] was 0.28 ± 0.01 nM; on LIMK2 [3] (setting [7]), 0.86 ± 0.05 nM. Also, the cell migration velocity result with C6 cells is on record as “reduced the cell velocity by twofold”.
Consider `CN(C)C(=O)Oc1cccc(NC(=O)C2(CN)CCN(c3ncnc4[nH]cc(Cl)c34)CC2)c1` [Compound 4], for which the 50% inhibitory concentration (IC50) at LIMK1 [4] was 24 nM; on LIMK2 [5], 1.6 nM.
Take `Cc1c[nH]c2ncnc(NCCNC(=NC#N)Nc3cccc(Cl)c3)c12` [Compound 8, 1-(3-Chlorophenyl)-2-cyano-3-(2-((5-methyl-7H-pyrrolo[2,3-d]pyrimidin-4-yl)amino)ethyl)guanidine]: the melting point (usually the temperature of the solid-liquid transition) fell in the range of 87 to 88 °C. In addition, the “LIMK1 inhibitory activity at 0.1 μM (in words)” value (“LIMK1 inhibitory activity” for short) on LIMK1 [1] (ADP-Glo assay) is given as “completely abolished inhibitory activity”. The inhibition at 0.1 µM at LIMK1 [1] (setting [8]) is below 0%.
Regarding `Cc1c[nH]c2ncnc(NCCNC(=NC#N)Nc3cccc(Br)c3)c12` [Compound 9, 1-(3-Bromophenyl)-2-cyano-3-(2-((5-methyl-7H-pyrrolo[2,3-d]pyrimidin-4-yl)amino)ethyl)guanidine], the melting point lay in the range of 86 to 88 °C. Further, the inhibition at 0.1 µM on LIMK1 [1] (setting [6]) came to 29.4 ± 10.3%.
`Cc1c[nH]c2ncnc(NCCNC(=NC#N)Nc3cccc(I)c3)c12` [Compound 10, 2-Cyano-1-(3-iodophenyl)-3-(2-((5-methyl-7H-pyrrolo[2,3-d]pyrimidin-4-yl)amino)ethyl)guanidine] returned a melting point of 88 to 89 °C. Moreover, the inhibition at 0.1 µM on LIMK1 [1] (setting [6]) is 17.8 ± 7.1%.
The compound `Cc1c[nH]c2ncnc(NCCCNC(=NC#N)Nc3cccc(Cl)c3)c12` [Compound 11, 1-(3-Chlorophenyl)-2-cyano-3-(3-((5-methyl-7H-pyrrolo[2,3-d]pyrimidin-4-yl)amino)propyl)guanidine] registered a melting point of 88 to 90 °C. Moreover, the inhibition at 0.1 µM on LIMK1 [1] (setting [6]) was 15 ± 10.7%.
The compound `Cc1c[nH]c2ncnc(NCCCNC(=NC#N)Nc3cccc(Br)c3)c12` [Compound 12, 1-(3-Bromophenyl)-2-cyano-3-(3-((5-methyl-7H-pyrrolo[2,3-d]pyrimidin-4-yl)amino)propyl)guanidine] yielded a melting point of 88 to 89 °C. On LIMK1 [1] (ADP-Glo assay), the “LIMK1 inhibitory activity” value is listed as “abolished the inhibitory activity”. Also, the inhibition at 0.1 µM at LIMK1 [1] (setting [8]) is below 0%.
For the compound `Cc1c[nH]c2ncnc(NCCCNC(=NC#N)Nc3cccc(I)c3)c12` [Compound 13, 2-Cyano-1-(3-iodophenyl)-3-(3-((5-methyl-7H-pyrrolo[2,3-d]pyrimidin-4-yl)amino)propyl)guanidine], the melting point was in the range of 91 to 93 °C. The inhibition at 0.1 µM at LIMK1 [1] (setting [6]) was 17.8 ± 7.1%.
In turn, `Cc1c[nH]c2ncnc(NCCCCNC(=NC#N)Nc3cccc(Cl)c3)c12` [Compound 14, 1-(3-Chlorophenyl)-2-cyano-3-(4-((5-methyl-7H-pyrrolo[2,3-d]pyrimidin-4-yl)amino)butyl)guanidine] returned a melting point of 90 to 91 °C. At LIMK1 [1] (ADP-Glo assay), the “LIMK1 inhibitory activity” value is on record as “completely abolished inhibitory activity”. Moreover, at LIMK1 [1] (setting [8]), the inhibition at 0.1 µM was below 0%.
`Cc1c[nH]c2ncnc(NCCCCNC(=NC#N)Nc3cccc(Br)c3)c12` [Compound 15, 1-(3-Bromophenyl)-2-cyano-3-(4-((5-methyl-7H-pyrrolo[2,3-d]pyrimidin-4-yl)amino)butyl)guanidine] gave a melting point of 97 to 98 °C. In addition, the inhibition at 0.1 µM on LIMK1 [1] (setting [9]) turned out to be 47%. Further, the inhibition at 0.1 µM on LIMK1 [1] (setting [6]) was 47.1 ± 1.6%.
In turn, `Cc1c[nH]c2ncnc(NCCCCNC(=NC#N)Nc3cccc(I)c3)c12` [Compound 16, 2-Cyano-1-(3-iodophenyl)-3-(4-((5-methyl-7H-pyrrolo[2,3-d]pyrimidin-4-yl)amino)butyl)guanidine] had a melting point of 90 to 91 °C. Moreover, the inhibition at 0.1 µM at LIMK1 [1] (setting [6]) is 41 ± 2.5%.
Regarding `Cc1c[nH]c2ncnc(N[C@H]3CC[C@H](NC(=NC#N)Nc4cccc(Cl)c4)CC3)c12` [Compound 17, 1-(3-Chlorophenyl)-2-cyano-3-((1r,4r)-4-((5-methyl-7H-pyrrolo[2,3-d]pyrimidin-4-yl)amino)cyclohexyl)guanidine], the melting point fell in the range of 120 to 122 °C. Moreover, at LIMK1 [1] (setting [9]), the inhibition at 0.1 µM came to 42%. In addition, the inhibition at 0.1 µM at LIMK1 [1] (setting [6]) turned out to be 41.7 ± 0.1%.
The corresponding values for `Cc1c[nH]c2ncnc(N[C@H]3CC[C@H](NC(=NC#N)Nc4cccc(Br)c4)CC3)c12` [Compound 18, 1-(3-Bromophenyl)-2-cyano-3-((1r,4r)-4-((5-methyl-7H-pyrrolo[2,3-d]pyrimidin-4-yl)amino)cyclohexyl)guanidine] are 127 to 128 °C, 69% and 69.2 ± 1.7%.
Turning to `Cc1c[nH]c2ncnc(N[C@H]3CC[C@H](NC(=NC#N)Nc4cccc(I)c4)CC3)c12` [Compound 19, 2-Cyano-1-(3-iodophenyl)-3-((1r,4r)-4-((5-methyl-7H-pyrrolo[2,3-d]pyrimidin-4-yl)amino)cyclohexyl)guanidine], the melting point was 129 to 130 °C. Also, at LIMK1 [1] (setting [6]), the inhibition at 0.1 µM was determined as 66.6 ± 8.8%.
`Cc1c[nH]c2ncnc(N3CCN(C(=NC#N)Nc4cccc(I)c4)[C@@H](C)C3)c12` [Compound 22, (S)-N′-Cyano-N-(3-iodophenyl)-2-methyl-4-(5-methyl-7H-pyrrolo[2,3-d]pyrimidin-4-yl)piperazine-1-carboximidamide] came in with a melting point of 130 to 131 °C. In addition, the inhibition at 0.1 µM on LIMK1 [1] (setting [10]) stood at 95.5 ± 0.4%. Further, the half-maximal inhibitory concentration (IC50) against LIMK1 [2] was 0.13 ± 0.01 nM. Moreover, the cell migration velocity entry in the series on C6 cells is recorded as “lowered the migration even further”. This compound displayed a half-maximal inhibitory concentration (IC50) against LIMK2 [3] (setting [7]) of 0.47 ± 0.01 nM.
`Cc1c[nH]c2ncnc(N[C@@H]3CCCC[C@H]3NC(=NC#N)Nc3cccc(Br)c3)c12` [Compound 23, 1-(3-Bromophenyl)-2-cyano-3-((1R,2R)-2-((5-methyl-7H-pyrrolo[2,3-d]pyrimidin-4-yl)amino)cyclohexyl)guanidine] showed a melting point of 127 to 128 °C. Also, at LIMK1 [1] (setting [10]), the inhibition at 0.1 µM came out at 96.7 ± 0.1%. The compound also showed an IC50 against LIMK1 [2] of 2830 nM. At LIMK2 [3] (setting [7]), this compound displayed an IC50 of 2650 nM.
The corresponding values for `Cc1c[nH]c2ncnc(N[C@@H]3CCCC[C@H]3NC(=NC#N)Nc3cccc(I)c3)c12` [Compound 24, 2-Cyano-1-(3-iodophenyl)-3-((1R,2R)-2-((5-methyl-7H-pyrrolo[2,3-d]pyrimidin-4-yl)amino)cyclohexyl)guanidine] are 128 to 129 °C, 93.2 ± 1.2%, 5080 nM and 3380 nM.
For the compound `Cc1c[nH]c2ncnc(N[C@H]3CCCC[C@@H]3NC(=NC#N)Nc3cccc(Br)c3)c12` [Compound 25, 1-(3-Bromophenyl)-2-cyano-3-((1S,2S)-2-((5-methyl-7H-pyrrolo[2,3-d]pyrimidin-4-yl)amino)cyclohexyl)guanidine], the melting point fell in the range of 127 to 128 °C. Also, the inhibition at 0.1 µM on LIMK1 [1] (setting [10]) is 96 ± 0.5%. This compound also had an inhibition at 10 µM at LIMK1 [2] (10 μM compound, 33P radiotracer assay) of 47%. For the same compound, the “inhibition of LIMK2 (in words)” value against LIMK2 [3] (33P radiotracer assay) is recorded as “no significant inhibition of LIMK2”. This compound also showed an IC50 on LIMK2 [3] (setting [11]) above 10000 nM.
Take `Cc1c[nH]c2ncnc(N[C@H]3CCCC[C@@H]3NC(=NC#N)Nc3cccc(I)c3)c12` [Compound 26, 2-Cyano-1-(3-iodophenyl)-3-((1S,2S)-2-((5-methyl-7H-pyrrolo[2,3-d]pyrimidin-4-yl)amino)cyclohexyl)guanidine]: the melting point is 128 to 129 °C. Further, the inhibition at 0.1 µM on LIMK1 [1] (setting [10]) was found to be 94.9 ± 0.8%. Further, on LIMK1 [2], the IC50 is 8360 nM. At LIMK2 [3] (33P radiotracer assay), the “inhibition of LIMK2 (in words)” value is reported as “no significant inhibition of LIMK2”. Moreover, the IC50 on LIMK2 [3] (setting [11]) was above 10000 nM.
